Assay results published in patent US5852008A, “Heteroatom substituted benzoyl derivatives that enhance synaptic response mediated by receptors” (The Regents of the University of California, priority 1995, dated 1998).
“Also recorded” adds a separate entry of the source.

Experiments:
[1] = system: long-term potentiation in CA1 field of hippocampal slices; experiment: Promotion of long-term potentiation (LTP) in CA1 field of hippocampal slices; assay type: cell-based, rat; details: 1.5 mM, theta burst stimulation; vs absence of drug, p<0.02; FIG. 3
Procedure: Long-term potentiation (LTP; a stable increase in the EPSP size of single responses after brief periods of high frequency stimulation) was elicited in the CA1 field of hippocampal slices in the absence (see FIG. 3, stippled bars, N=6) and in the presence of 1.5 mM of Invention Compound I (see FIG. 3, striped bars, N=5). In the latter case, the amount of potentiation was determined after washing out the test compound and comparing the response size with that before test compound infusion. Data presented in FIG. 3 show the percent increase in the EPSP amplitude (mean and S.D.) at 40, 60, and 90 minutes after LTP induction.
For these studies, field EPSPs in slices of hippocampus were elicited by single stimulation pulses and recorded by extracellular electrodes as described in Example II. After collecting responses every 40 seconds for 20-30 minutes to establish a baseline, LTP was induced with ten short bursts of pulses delivered to the CA3 axons; each burst consisted of four pulses separated by 10 milliseconds; the interval between the bursts was 200 milliseconds. This pattern of axon stimulation mimics a discharge rhythm observed in the hippocampus of animals engaged in learning and is referred to as the "theta burst stimulation paradigm" [see, for example, Larson and Lynch in Science Vol. 232: 985-988 (1986)]. […]

[2] = system: AMPA receptor; experiment: Monosynaptic EPSP responses in the hippocampus of anesthetized rats after intraperitoneal injection; assay type: in vivo, rat (male Sprague-Dawley); details: i.p. 120-180 mg/kg
Procedure: The time constant for the decay of the EPSP is a measure for the duration of the response.
In these experiments, male Sprague-Dawley rats were anesthetized with urethane (1.7 g/kg) and body temperature was maintained at 37° C. with the use of a heat lamp. A stimulation electrode (two twisted stainless steel wires, 150 μm diameter, insulated with teflon) was placed stereotaxically in the trajectory of the Schaffer collateral (SC) pathway from CA3 to CA1 of the hippocampus (coordinates relative to Bregma: 3.5 mm P., 3.5 mm L., and 3.0-3.7 mm V). A recording electrode (stainless steel, 150 μm diameter, insulated with teflon) was placed in the ipsilateral CA1 field (coordinates relative to Bregma: 3.8 mm P., 2.9 mm L., and 2.2-2.8 mm V.), 100-200 μm ventral to the electrophysiologically-identified CA1 stratum pyramidale (i.e., in the stratum radiatum).
Decay time constants were determined by single exponential fits to the decay phase of the synaptic response and expressed as a percent of the value obtained during the pre-injection control period.

[3] = system: AMPA receptors; experiment: Field EPSP in rat hippocampal slices (field CA1): amplitude and area of AMPA receptor-mediated synaptic responses; assay type: cell-based, rat (Sprague-Dawley)
Procedure: The physiological effects of invention compounds can be tested in vitro with slices of rat hippocampus as follows. Excitatory responses (field EPSPs) are measured in hippocampal slices which are maintained in a recording chamber continuously perfused with artificial cerebrospinal fluid (ACSF).
To conduct these tests, the hippocampus was removed from anesthetized, 2 month old Sprague-Dawley rats and in vitro slices (400 micrometers thick) were prepared and maintained in an interface chamber at 35° C. using conventional techniques [see, for example, Dunwiddie and Lynch, J. Physiol. Vol. 276: 353-367 (1978)]. The chamber was constantly perfused at 0.5 ml/min with ACSF containing (in mM): NaCl 124, KCl 3, KH2 PO4 1.25, MgSO4 2.5, CaCl2 3.4, NaHCO3 26, glucose 10 and L-ascorbate 2. A bipolar nichrome stimulating electrode was positioned in the dendritic layer (stratum radiatum) of the hippocampal subfield CA1 close to the border of subfield CA3.
Current pulses (0.1 msec) through the stimulating electrode activate a population of the Schaffer-commissural (SC) fibers which arise from neurons in the subdivision CA3 and terminate in synapses on the dendrites of CA1 neurons. Activation of these synapses causes them to release the transmitter glutamate. Glutamate binds to the postsynaptic AMPA receptors which then transiently open an associated ion channel and permit a sodium current to enter the postsynaptic cell. This current results in a voltage in the extracellular space (the field excitatory postsynaptic potential or field "EPSP") which is recorded by a high impedance recording electrode positioned in the middle of the stratum radiatum of CA1.
For the experiments summarized in FIG. 1, the intensity of the stimulation current was adjusted to produce half-maximal EPSPs (typically about 1.5-2.0 mV). Paired stimulation pulses were given every 40 sec with an interpulse interval of 200 msec (see below). The field EPSPs of the second response were digitized and analyzed to determine amplitude, half-width, and response area. If the responses were stable for 15-30 minutes (baseline), test compounds were added to the perfusion lines for a period of about 15 minutes. The perfusion was then changed back to regular ACSF.
Paired-pulse stimulation was used since stimulation of the SC fibers, in part, activates interneurons which generate an inhibitory postsynaptic potential (IPSP) in the pyramidal cells of CA1. This feed forward IPSP typically sets in after the EPSP reaches its peak. It accelerates the repolarization and shortens the decay phase of the EPSP, and thus could partially mask the effects of the test compounds. One of the relevant features of the feed-forward IPSP is that it can not be reactivated for several hundred milliseconds following a stimulation pulse. This phenomenon can be employed to advantage to eliminate IPSP by delivering paired pulses separated by 200 milliseconds and using the second ("primed") response for data analysis.
These effects are mirrored in the field EPSP, as reported in the literature [see, for example, Staubli et al., Psychobiology supra; Xiao et al., Hippocampus supra; Staubli et al., Hippocampus Vol. 2: 49-58 (1992)].
The variables set forth in the table refer to the following generic structure: [drawing 33]

[4] = system: hippocampal electroencephalogram; experiment: Hippocampal electroencephalogram monitoring for electrographic seizures after i.p. injection; assay type: in vivo, rat (male Sprague-Dawley); details: i.p. 120-180 mg/kg
[5] = peripheral administration in humans; cited from earlier work

SMILES | degree of stable long-term potentiation [1] | time to reversal of the increased response duration [2] | effect on duration / decay of synaptic responses ([2]; anesthetized rats, FIG. 4) | blood-brain barrier passage ([2]; inferred from EPSP effect) | increase in area of the field EPSP ([3]; 100 μM, mean and S.D. of 4 experiments) | increase in response area relative to aniracetam ([3]; 750 μM) | onset and reversibility of effect ([3]; 750 μM, 15 min infusion, washout, FIG. 1) | effect on amplitude, duration (half-width) and area of synaptic response ([3]; 750 μM, 15 min infusion, FIG. 1) | EC50 ([3]; percent increase in field EPSP amplitude, log dose/response, maximal response of 85% increase assumed where solubility was limiting, read-out: EC50 (field EPSP amplitude)) | electrographic seizures [4] | conversion to anisoyl-GABA [5]
O=C(c1ccc2c(c1)OCCO2)N1CC=CCC1 [Invention Compound I] | increases the magnitude of long-term potentiation; also recorded: nearly twice as large; also recorded: facilitate induction of maximal long-term potentiation in vitro | 60 to 120 min | slows the decay rate of synaptic responses; also recorded: rapid increase in the duration of the synaptic response; also recorded: somewhat larger for the second (primed) response; also recorded: reversibly prolong synaptic responses in the hippocampus | sufficient amounts of the test compound cross the blood-brain barrier | 46±16% | nine | the effects occur quickly after infusion (horizontal bar) and reverse upon washout; also recorded: rapid onset of action and was fully reversible upon washout | increases the amplitude and duration (measured as half-width) of synaptic responses; also recorded: much larger effect than does aniracetam at twice the concentration; also recorded: the magnitude of the effects was much greater | 500 µM | in no case did injections of Invention Compound I produce electrographic seizures | 
COc1ccc(C(=O)N2CCCC2=O)cc1 [aniracetam, N-anisoyl-2-pyrrolidinone] |  |  |  |  |  |  |  |  |  |  | about 80%
